Entries after “also recorded” stand apart in the source; their conditions may differ. Where two headings read alike, the source gives them in different places.
Columns and labels:
[1] = Partitioning tracer column experiment, Ottawa sand contaminated with TCE, air carrier (Example 3); conditions: for Mean Residence Times ti / Mean Residence Times ti (cc) / Activity Coefficient, γi: 0.45 cc/min; for Activity Coefficient, γi: in TCE, ideal Ki / experimental Ki; for partitioning into TCE (in words): Ottawa sand column
Method: Three columns were prepared for each experiment: (1) a contaminated primary column (2.5 cm×30 cm) saturated with residual water and TCE; (2) a contaminated pre-column (2.5 cm×60 cm) saturated with water and TCE; and (3) an uncontaminated secondary column (2.5 cm×30 cm) saturated only with water.
The primary column was mounted in a vertical configuration and a burette with 100 cc of deionized water was mounted above the column and attached to the inlet. The valve on the burette was opened and water was allowed to gravity drain into the column. After approximately one pore volume of water had entered the column, the burette was disconnected and the column was allowed to continue to gravity drain. Air was flushed through the column to displace any mobile water. The difference between the water injected and the water produced was used to determine the residual water saturation.
Next, approximately 5 cc of TCE, enough to produce a residual saturation, was injected into the primary column using a syringe and allowed to gravity drain. After draining overnight, the column was weighed for a more accurate estimate of TCE saturation. […] In both cases, water and TCE injection, the pre-column was treated in the same manner. However, larger amounts of water and TCE were injected since the pre-column is twice as large.
The primary column and pre-column were plumbed into the flowpath. Air flow was through the precolumn, past the reference side of the thermal conductivity detector (TCD), to the test column and then to the measurement side of the TCD. Two injectors, one for the gas tracers (Valco Instruments'switching valve with sample loop) and one for liquid tracers (heated injection port) were located between the reference side of the TCD and the test column. Flow rates were adjusted by the use of a snubber valve located between the precolumn and TCD. Flow rates were monitored and measured by a combination of rotameters and a bubble meter. The TCD measures the difference between the reference stream and the effluent of the test column. Additionally, water-filled manometers were affixed to each end of the column to measure pressure drops across the column.
Approximately 4 to 8 hours was required for the air stream to equilibrate and for a stable baseline to be established. When the baseline was stable, tracer injections began. Data collected from the TCD were integrated and the integration values stored to computer files data acquisition software.
After the uncontaminated column experiment had been completed, the contaminated column experiments were begun. […] The mean residence time for production of each tracer was calculated from the response curves using the method of moments. This value can be expressed in minutes or converted to volume units by multiplying by the flow rate.

[2] = Tracer injection into uncontaminated secondary column (Example 3); format: physicochemical; conditions: for adsorption: inferred; for mean residence time: method of moments
Method: A secondary, uncontaminated column was packed and configured in the same manner as the contaminated column. The only modification made to this column was that the volume of water was equal to the volume of water plus TCE in the primary column. This secondary column was used to observe tracer behavior in an uncontaminated environment.
Before tracer injection began in the primary column, argon and C6 F12 were injected into the secondary column. Their breakthrough curves are plotted in FIG. 3. Using this procedure, the gas saturation in the secondary column would be similar to that in the primary column. The secondary column was first allowed to equilibrate. […] The C6 F12 was injected as a liquid through the heated injection port. The injector temperature was 40° C.; the liquid was vaporized and moved through the column as a gas. […] When mixed with air, however, they become gases.
The mean residence times should be equal since there is no TCE for the tracer to partition into. […] The flatness of the peak is believed to be a result of the fact that the liquid vaporizes slowly.

[3] = Partitioning tracer column experiment, field soil contaminated with TCE; format: physicochemical; conditions: for Activity Coefficient, γi, in field soil: field soil contaminated with TCE
[4] = cited from earlier work
[5] = Batch equilibrium measurement of the partition coefficient with TCE; format: physicochemical
Text: Since a rate dependence was observed, the rate was lowered to 0.08 cc/min and the experiment repeated for C4 F8. In addition, a batch equilibrium measurement of the partition coefficient was made for this tracer. […] The residence time at 0.45 cc/min is about two hours and several times this may be required for equilibrium partitioning. As the partition coefficient increases, so does the residence time, so the heavier tracers should be less effected by nonequilibrium partitioning. In any case, once suitable tracers have been identified, as has been done here, either batch experiments or experiments at low rates or in longer columns (to give long residence times) can be conducted to determine the equilibrium partitioning coefficients needed for field application (assuming the residence time for the field test is long compared to the column test).

[6] = Partitioning tracer column experiment, PCE-contaminated water-saturated Ottawa sand (Example 1); format: physicochemical; conditions: water-saturated sand with residual PCE
Method: A soil column experiment was performed to illustrate the use of partitioning tracers to detect DNAPL in a saturated zone. A Kontes preparative chromatography column made of borosilicate glass (4.8 cm ID) was packed with-mesh sizes of 60 to 200 Ottawa sand and saturated with water at 23° C. The length of this sandpack was 12.24 cm. The porosity and intrinsic permeability to water were measured and found to be 0.329 and 5.84 Darcy, respectively. […] Two alcohol tracers were added to the water and 0.52 pore volumes of water containing these tracers were injected at 0.316 ml/min followed by several more pore volumes of water until the alcohols could no longer be detected in the effluent. […] The partition coefficients of each of these alcohols were determined by equilibrating samples containing in the range of 100 to 1,000 mg/l of both alcohols with equal volumes of water and PCE and measuring the alcohol concentrations in each phase using a gas chromatograph. […]
The separation of the two curves gives an unmistakable signal that the sand is contaminated with PCE. […] This value agrees with the value measured from a mass balance on the PCE within the experimental error of each of the measurements. The tracer curves were then numerically simulated using this value and the measured partition coefficients and these are the curves shown in FIG. 1. […]

[7] = Partitioning tracer column experiment after surfactant remediation of the sand (Example 2); format: physicochemical; conditions: no NAPL present
Text: The contaminated sand from Example 1 was cleaned by flushing the sand with an aqueous solution of surfactant until all the trichloroethene was removed to thereby simulate a successful remediation. The procedure of Example 1 was then repeated.

[8] = water; cited from earlier work

Row | Compound | Mean Residence Times ti ([1]; Ottawa sand, TCE) | Mean Residence Times ti (cc) ([1]; Ottawa sand, TCE) | Activity Coefficient, γi ([1]; Ottawa sand) | Activity Coefficient, γi, in field soil [3] | Vapor Press ([4]; @ 25 ° C.) | other results
1 | [Ar] [Argon] | 93.2 min | 41.9 cc |  |  |  | adsorption [2]: negligible; mean residence time [2]: 45 cc
2 | FC1(F)C(F)(F)C(F)(F)C1(F)F [C4 F8, Octafluorocyclobutane] | 131.4 min | 59.1 cc | 26.6 | 20.8 |  | partition coefficient at 0.08 cc/min ([1]; 0.08 cc/min, Ottawa sand, TCE): about 4.7; Vapor Press ([4]; @ 21 ° C.): 40 psi; partition coefficient, batch equilibrium [5]: about 4.7
3 | FC1=C(F)C(F)(F)C(F)(F)C1(F)F [C5 F8, Octafluorocyclopentene] | 235.0 min | 105.8 cc | 20.3 | 17.2 | 12.7 psi | 
4 | FC(F)(F)C1(F)C(F)(F)C(F)(F)C(F)(F)C(F)(F)C1(F)F [C7 F14, perfluoromethylcyclohexane] | 362.6 min | 163.2 cc | 58.3 | 52.6 | 2.1 psi | 
5 | FC(F)(F)C1(F)C(F)(F)C(F)(F)C(F)(F)C(F)(C(F)(F)F)C1(F)F (stereo not shown) [C8 F16, perfluoro-1,3-dimethylcyclohexane] | 1055.0 min | 474.8 cc | 63.1 | 89.7 | 0.67 psi | 
6 | FC(F)(F)F [CF4, Carbon Tetrafluoride] | 95.1 min | 42.8 cc |  |  |  | partitioning into TCE (in words) [1]: essentially zero; also recorded: negligible partitioning; partitioning into TCE in field soil (in words) ([3]; field soil): negligible partitioning
7 | CC(C)C(C)(C)O [DMB, 2,3dimethyl 2-butanol] |  |  |  |  |  | partitioning / retardation in PCE-contaminated column [6]: retarded relative to the IPA; tracer travel after remediation (in words) [7]: travel through the sand at the same rate
8 | FS(F)(F)(F)(F)F [SF6, Sulfur Hexafluoride] | 103.7 min | 46.7 cc | 11.6 | 17.2 |  | partitioning into TCE (in words) [1]: small but experimentally significant partitioning; Vapor Press ([4]; @ 21 ° C.): 334 psi
9 | ClC=C(Cl)Cl [TCE, trichloroethylene] |  |  |  |  |  | aqueous solubility [8]: 1385 milligrams/liter; vapor pressure ([4]; 20° C.): 1.16 psi
10 | [3H]O[3H] [tritiated water] |  |  |  |  |  | partitioning / retardation in PCE-contaminated column [6]: does not partition
11 | dodecafluorodimethylcyclobutane [C6 F12] | 204.4 min | 92.0 cc | 52.0 | 45 | 7.2 psi | factor by which mean residence time differs from argon ([1]; primary column, TCE, Ottawa sand): more than two; adsorption [2]: negligible; mean residence time [2]: 45 cc

Reference: patent US5905036A, “Characterization of organic contaminants and assessment of remediation performance in subsurface formations” (Board Of Regents, The University of Texas System, priority 1997, dated 1999)
